From patent publication US20100160432A1, “Curative drug for neurodegenerative diseases” (priority 2007, published 2010)
Where two headings read alike, the source gives them in different places.

Assays:
[1] = system: SH-SY5Y cells; experiment: Cytoprotection against linoleic acid hydroperoxide (LA-OOH) cell disorder, SH-SY5Y cells, methylene blue dye uptake; assay type: cell-based, human; conditions: for Protection Rate (%) / Survival Rate (%): SH-SY5Y cells, LA-OOH 70 μM, about 20 h
Procedure: (§1) Of the hydroquinone derivatives expressed in the aforesaid Formula 1, 2,3,5-trimethyl-hydroquinone-1-hexylether (Compound 1) was examined in comparison with vitamin E with respect to the activity of inhibiting toxicity of lipid peroxide to nerve cells. PC12 cells as a cell culture model of for human neuroblastoma-derived SH-SY5Y and rat pheochromocytoma cells were cultivated by the law of the art. A culture media was prepared in effect by adding FCS (fetal calf serum) to Dulbecco's Eagle medium (DMEM) and used further with the addition of NaHCO3 (3.7 g/L), penicillin G (100 U/mL) and Streptomycin ([…]). A cultivation was performed by seeding 6×10^4 SH-SY5Y cells and 4×10^4 PC12 cells in a CO2 incubator at 37° C. using a microplate with 24 macroscopic pores. After 48 hours, the aforesaid Compound 1 or vitamin E was added thereto. Then after about 30 minutes, 70 μM of linoleic acid hydroperoxide were added thereto for the SH-SY5Y cells and 35 μM of the same were added for PC12 cells. After cultivation for about 20 hours, the number of surviving cells was measured.
(§2) The measurement of the surviving cells was made by a Methylene blue dye uptake method. To be more specific, the cells were rinsed twice with PBS (phosphate buffered saline free from Mg and Ca), and then, fixated with 10% formalin for 5 minutes. Further, the cells were rinsed three times with distilled water, stained with 0.05% methylene blue solution for 60 minutes, and rinsed three times with distilled water. Then, 20 minutes after adding 0.33N HCl thereto, the absorbance of the cells was measured at 665 nm. The survival rate and protection rate of the cells were calculated on the basis of the measured result by the following equation.
(§3) Cell survival rate (%)=[absorbance of treated cells with testing additives]/[absorbance of non-treated cells]×100
(§4) Protection rate (%)={1−(100−[survival rate of treated cells with testing additives])/(100−[survival rate of cells with no additives])}×100

[2] = system: PC12 cells; experiment: Cytoprotection against linoleic acid hydroperoxide (LA-OOH) cell disorder, PC12 cells, methylene blue dye uptake; assay type: cell-based, rat; conditions: for Protection Rate (%) / Survival Rate (%): LA-OOH 35 μM, about 20 h; for protection rate of PC12 cells (up to) / survival rate of PC12 cells (up to): highest value over the doses tested
Procedure: as §1, §2, §3, §4

[3] = system: NO production; conditions: compared with vitamin E; cited from earlier work
[4] = compared with vitamin E, cited from earlier work

Row | Compound | Protection Rate (%) ([1]; dosage 0.5 μM) | Survival Rate (%) ([1]; dosage 0.5 μM) | Protection Rate (%) ([1]; dosage 1.0 μM) | Survival Rate (%) ([1]; dosage 1.0 μM) | Protection Rate (%) ([1]; dosage 5.0 μM) | Survival Rate (%) ([1]; dosage 5.0 μM) | Protection Rate (%) ([1]; dosage 10.0 μM) | Survival Rate (%) ([1]; dosage 10.0 μM) | Protection Rate (%) ([2]; dosage 0.1 μM) | Survival Rate (%) ([2]; dosage 0.1 μM) | Protection Rate (%) ([2]; dosage 0.5 μM) | Survival Rate (%) ([2]; dosage 0.5 μM) | Protection Rate (%) ([2]; dosage 1.0 μM) | Survival Rate (%) ([2]; dosage 1.0 μM) | Protection Rate (%) ([2]; dosage 5.0 μM) | Survival Rate (%) ([2]; dosage 5.0 μM) | protection rate of PC12 cells (up to) [2] | survival rate of PC12 cells (up to) [2] | also measured
1 | Vitamin E [reference compound] | 14.5 | 83.72 | −6.3 | 79.77 | −6.2 | 79.78 | 4.3 | 81.78 | 6.8 | 37.16 | 4.9 | 35.88 | 4.8 | 35.85 | 14.8 | 42.57 | around 15% | about 42% | –
2 | CCCCCCOc1cc(C)c(O)c(C)c1C [Compound 1, 2,3,5-trimethyl-hydroquinone-1-hexylether] | 14.8 | 83.41 | 22.1 | 84.83 | 38.3 | 87.97 | 33.5 | 87.04 | 21.5 | 45.68 | 80.6 | 86.57 | 88.4 | 91.96 | 88.9 | 92.31 | around 90% | around 90% | toxicity in comparison with vitamin E ([1]; SH-SY5Y cells and PC12 cells, from Table 1 and Table 2): lower toxicity; NO-production inhibitory activity relative to vitamin E [3]: 500 times as strong as vitamin E; antioxidative properties relative to vitamin E [4]: double that of vitamin E; antioxidative properties relative to vitamin E ([4]; listed as 2,3,5-trimethyl-hydroquinone-1-hexylether): twice as strong as vitamin E
